Measured values taken from patent publication US9745288B2, “Compounds and methods for treating cancer by inhibiting the urokinase receptor” (Indiana University Research and Technology Corporation, priority 2011, dated 2017).

Assays:
uPAR = target: T1, uPAR (Homo sapiens, UniProt Q03405); experiment: Fluorescence polarization assay, displacement of AE147-FAM peptide from uPAR; format: binding; settings: Table 1, assay not stated; for Ki: read-out: Ki
T1 construct: human uPAR (suPAR, amino acids 1-283) was expressed in stably transfected Drosophila S2 cells; made in house; host or cells: Drosophila S2 cells
Protocol: Fluorescence Polarization Assay. The fluorescence polarization assay used fluorescent AE147-FAM peptide. uPAR was titrated against the fluorescent AE147-FAM peptide and data were fit to a sigmoidal dose-dependent curve as the FP value increases to determine the Kd of binding using Sigmaplot (Systat Software Inc., CA). Inhibitor screens were carried out in triplicates using 500 nM uPAR, 100 nM AE147-FAM, and inhibitor concentrations ranging from 0.78 μM to 100 μM in 50 μL volumes in black BD Falcon 384-well microplate. […] Polarized fluorescence intensities were measured immediately following addition of inhibitors to the protein-peptide mix at room temperature on an EnVision® Multilabel Plate Readers (PerkinElmer) with excitation and emission wavelengths of 485 nm and 530 nm, respectively.
Cloning, Expression and Purification of uPAR. uPAR was successfully cloned, expressed and purified. From 1 L of culture, nearly 12 mg of protein was expressed, which will be sufficient to conduct the experiments disclosed herein. Briefly, a truncated, soluble form of human uPAR (suPAR, amino acids 1-283) was expressed in stably transfected Drosophila S2 cells using the Drosophila Expression System (Invitrogen). suPAR was obtained by a two-step purification process. The conditioned culture medium was filtered (0.45 μm) and loaded onto a DEAE Sephadex column equilibrated with 20 mM Tris (pH 7.4). The protein was eluted with a gradient of 0-1 M NaCl in 20 mM Tris (pH 7.4). suPAR containing fractions were then pooled, concentrated, and filtered prior to RP-HPLC using a semi-preparative (10×25 cm) C8 column. A 1 mL aliquot of the concentrated protein was loaded onto the column at initial gradient conditions of 95% eluent A and 5% eluent B, where eluent A was 0.1% TFA/100% H2O and eluent B was 70:30 acetonitrile/[…]. The protein elutes using a gradient of 5% eluent A to 95% eluent B over 46 minutes at a flow rate of 4 mL/min. Under these conditions, the protein eluted as a single sharp peak (tR=29 min). […] Surface plasmon resonance confirmed that the purified uPAR was capable of binding to uPA. The identity of the 60 kDa band was established by immunoblot (not shown).
The design of a fluorescent probe was guided by the three-dimensional structure of uPAR in complex with peptide AE147.^27 As this peptide binds at the same site that is occupied by the growth factor-like domain of uPA, it provides the basis for the development of a competition assay to assess binding to this site. Flurescein was introduced to the N-terminus of AE147.
All 210 compounds were screened at initial concentration of 50 μM for displacement of AE147-FAM peptide. Eleven compounds gave polarization readings that were five times that of the standard deviation of the control peptide (FIG. 1B). Secondary concentration-dependent study for these eleven compounds was performed.
The resulting inhibition curves were used to determine an inhibition constant, Ki, for each.

MDA-MB-231 cells [1] = experiment: Invasion assay (Boyden chamber, Matrigel); format: cell-based, human
Protocol: Invasion and Migration Assays. These assays were performed using BD BioCoat Matrigel Invasion Chamber (Cat. 354480, BD Biosciences, Bedford, Mass.). The undersurface of the inserts was coated with 30 μg/mL of fibronectin (Sigma, F2006) in PBS at 4° C. overnight. The inserts were washed with PBS once. Then, 0.5 mL of serum-free medium was separately added to the upper and lower chambers to equilibrate the Matrigel invasion chambers at 37° C., 5% CO2 for 2 hours. After starvated with serumfree DMEM or 4 hours, subconfluent MDA-MB-231 cells were trypsinized and resuspended in 0.1% FBS DMEM. 5×10^4 cells in 500 μL of 0.1% FBS DMEM containing various compounds or 1.0% DMSO (as control) were added to the upper chambers. 500 μL of 10% FBS DMEM containing the same concentration of the same compound or DMSO were added to the lower chambers. We incubated the invasion chambers for 3 hours at 37° C., 5% CO2. Non-invaded cells were removed from the upper chamber with a cotton swab. The invaded cells were fixed with 100% methanol and then stained with Hematoxylin Stain Harris Modified Method (Fisher, SH30-500D). The filters were washed with water 3 times. Filters were air dried and the invaded cells were counted in ten randomly selected microscopic fields (×200 magnification). The experiment was performed in triplicate per group and shown by mean±SE.
Whether the two active compounds affected invasion, adhesion and migration in cell culture in a concentration-dependent study was tested (FIGS. 2A, 2B). For invasion, the Transwell (or Boyden) chamber assay was used.^28 The assay uses a chamber with two compartments that are separated by a microporous membrane known as Matrigel consisting of components of the ECM such as collagen, laminin and fibronectin.^28
Invasive tumor cells degrade the Matrigel and migrate through the membrane to the lower compartment. […] FIGS. 2A and 2B show the effect of representative presently disclosed compounds on MDA-MB-231 metastasis. Percent inhibition of invasion, migration, and adhesion of MDA-MB-231 by compounds that bind to uPAR.

PANC-1 cells [2] = experiment: PANC-1 invasion assay; format: cell-based, human
MDA-MB-231 cells [3] = experiment: Adhesion assay on fibronectin-coated wells; format: cell-based, human; settings: MDA-MB-231
Protocol: Adhesion Assay. Quantitative cell adhesion assays were carried out in nontissue culture treated 96-well microtiter plates (Evergreen Scientific, Los Angeles, Calif.) which were coated with 15 μg/mL fibronectin (Sigma) for 1 h at room temperature. Fibronectin coated and uncoated control wells were blocked for 1 h with 3% heat denatured bovine serum albumin (BSA) at 37° C. Cells were split one day prior to the experiment to achieve a subconfluent culture. […] The wells were washed and the number of adherent cells was quantified by crystal violet staining at 570 nm.^19,20 The results were shown by means±SE.

[4] = system: different signaling molecules; experiment: Western blot analysis of signaling; format: cell-based; settings: n=1
Protocol: In light of the previously reported role of uPAR in signaling, the effect of IPR-993, IPR-737, IPR-81 and IPR-69 on signaling was studied by Western blot analysis (FIG. 23). A concentration-dependent study was carried out for IPR-737.

MDA-MB-231 cells [5] = experiment: MTT proliferation assay; format: cell-based, human; settings: MDA-MB-231
Protocol: (§1) Proliferation Assay. The procedure consisted of culturing cells at 37° C. in 10% FBS-DMEM medium containing various amounts of compound. 5 mM compound stock in 100% DMSO was 1:50 diluted in medium, filtered, and serially diluted in 96-well plate. Then seeded cells were incubated for 3 days. Viable cells were quantified by MTT assay at absorbance of 570 and 630 nm.
FIGS. 4A-4D show inhibition of MDA-MB-231 proliferation and mechanism of cell killing. To gain insight into the mechanism by which these compounds are inhibiting growth, a flow cytometry analysis with annexin V-FITC and PI staining was performed. The level of apoptotic cells in MDA-MB-231 was assessed by the percentage of Annexin V-positive/PI-negative cells present after exposure of MDAMB-231 cells to increasing concentration of IPR-69 for 24 h (FIG. 4B). At a concentration of 50 μM, IPR-69 induced significant apoptosis as evidenced by a 51% and 21% increase in apoptotic cells (Annexin V positive/PI-negative) and necrotic cells (Annexin V-positive/PI-positive), respectively. […] At a concentration of 50 μM, 26% of cells were necrotic (Annexin V positive/PI-positive), a 22% increase over control. 46% of cells were apoptotic (Annexin V positive/PInegative), compared with 4% of control.

PANC-1 cells [6] = experiment: MTT assay; format: cell-based, human
Protocol: as §1
Some of the compounds of the presently disclosed subject matter were tested in a MTT assay using a human pancreas carcinoma cell line PANC-1 (FIG. 12A). […] One of these compounds, IPR-737, was further tested in a MTT assay using MDA-MB-231, AsPC-1 (human pancreas adenocarcinoma cell line), and PANC-1 cells.

MMP-9 = experiment: Gelatin zymography of MDA-MB-231 conditioned medium; format: cell-based, human
Protocol: Gelatin Zymography. MDA-MB-231 cells were treated with different concentrations of uPAR compounds in serum free medium for 24 h, the conditioned medium were collected, concentrated by Amicon Ultra centrifugal filter units (Millipore, #UFC500324), proteins were normalized and electrophoresed on sodium dodecyl sulfate (SDS)-polyacrylamide gels (10%) containing 1 mg/mL gelatin. After electrophoresis, the gel was washed twice in 50 mM Tris-HCl (pH 7.6) containing 5 mM CaCl2 and 2.5% Triton X-100 for 30 minutes at room temperature and incubated in buffer that contained 50 mM Tris-HCl (pH 7.6), 200 mM NaCl, 10 mM CaCl2 at 37° C. for 36 h. Then, the gels were stained with 0.05% Coomassie brilliant blue (CBB) and destained with 30% methanol in 10% acetic acid. Areas of gelatinolytic degradation appeared as transparent bands on the blue stained background of the gel. Data were quantified using Image J.
To degrade collagen within the ECM, malignant cells unleash a series of extracelullar proteases known as matrix metalloproteinases (MMPs).

CYP2C9 = CYP2C9 (Homo sapiens, UniProt P11712); experiment: Fluorescence-based CYP2C9 inhibition assay; settings: 5 μM
Protocol: CYP metabolism was measured using a fluorescence-based assay designed by Cohen et al.,^41 recently implemented by Invitrogen (Carlsbad, Calif.).

T1 sequence (Q03405 23-305): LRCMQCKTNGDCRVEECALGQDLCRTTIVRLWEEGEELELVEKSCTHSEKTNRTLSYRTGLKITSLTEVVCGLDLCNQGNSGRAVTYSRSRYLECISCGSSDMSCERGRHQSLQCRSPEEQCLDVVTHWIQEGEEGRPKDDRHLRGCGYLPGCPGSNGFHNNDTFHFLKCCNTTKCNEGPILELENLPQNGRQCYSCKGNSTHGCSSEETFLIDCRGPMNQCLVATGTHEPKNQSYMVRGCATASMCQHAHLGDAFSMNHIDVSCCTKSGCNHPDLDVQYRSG
Sequence of CYP2C9 (P11712 whole entry): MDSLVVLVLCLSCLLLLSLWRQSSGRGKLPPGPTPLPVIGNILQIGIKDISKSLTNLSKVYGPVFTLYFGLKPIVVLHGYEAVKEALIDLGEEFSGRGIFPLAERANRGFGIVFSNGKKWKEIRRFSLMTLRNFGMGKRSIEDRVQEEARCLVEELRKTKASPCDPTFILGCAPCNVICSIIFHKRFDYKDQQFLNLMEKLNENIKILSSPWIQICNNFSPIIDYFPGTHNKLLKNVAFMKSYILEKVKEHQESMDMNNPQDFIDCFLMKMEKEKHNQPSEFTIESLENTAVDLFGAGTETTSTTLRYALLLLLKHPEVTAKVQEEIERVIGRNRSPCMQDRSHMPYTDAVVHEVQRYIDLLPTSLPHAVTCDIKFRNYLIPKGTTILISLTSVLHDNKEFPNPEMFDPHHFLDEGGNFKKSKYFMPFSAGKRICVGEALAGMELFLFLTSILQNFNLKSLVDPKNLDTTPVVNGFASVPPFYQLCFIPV

c1ccc(CNCCC(Cc2ccccc2)c2ccc3c(c2)OCO3)cc1 (stereo not drawn) [IPR-021]
IC50 (uPAR): 58.7 µM | Ki (uPAR): 17.9 µM

COc1ccccc1C(CCNCc1ccccc1)c1ccc2c(c1)OCO2 (stereo not drawn) [IPR-022]
IC50 (uPAR): 24.2 µM | Ki (uPAR): 7.3 µM

COc1ccc(N2C(=O)CCC(C(=O)Nc3ccc(OC)c(Cl)c3)C2c2ccc(OC)c(OC)c2)cc1 (stereo not drawn) [IPR-108]
IC50 (uPAR): 42 µM | Ki (uPAR): 12.8 µM

CCCCCCOc1cccc(N2C(=O)C(O)=C(C(=O)c3ccccc3)C2c2ccc(CC)cc2)c1 (stereo not drawn) [IPR-993]
cell invasion (MDA-MB-231 cells [1]): inhibition of activity with increasing concentrations of compound | cell viability in the PANC-1 invasion assay (PANC-1 cells [2]): little decrease in cell viability | PANC-1 invasion (PANC-1 cells [2]; increasing concentrations): inhibition of activity with increasing concentrations of compound | cell adhesion (MDA-MB-231 cells [3]): some activity | effect on signaling molecules [4]: did not seem to be much of an effect | cell proliferation / viability (MTT, words) (MDA-MB-231 cells [5]): inhibited cell viability | cell proliferation / viability (MTT, words) (PANC-1 cells [6]): inhibited cell viability | MMP-9 activity in gelatin zymography (MMP-9): did not appear to demonstrate impairment of MMP-9 activity

Nc1ccc(S(=O)(=O)Nc2ccnn2-c2ccccc2)cc1 [sulphaphenazole, reference compound]
inhibition of CYP2C9 (CYP2C9): approximately 69%
